Results as given in patent US20200239530A1, “COMPOUNDS AND METHODS OF MODULATING PROTEIN DEGRADATION” (Vividion Therapeutics, Inc., priority 2017, published 2020).

Target: T1, DDX20 Probable ATP-dependent RNA helicase DDX20 (Homo sapiens, UniProt Q9UHI6)
T1 construct: 200 μL of lysate containing 5 mg/ml proteome was treated with 2 μL of 100× compound stock; endogenous in cells
T1 sequence (Q9UHI6 1-824): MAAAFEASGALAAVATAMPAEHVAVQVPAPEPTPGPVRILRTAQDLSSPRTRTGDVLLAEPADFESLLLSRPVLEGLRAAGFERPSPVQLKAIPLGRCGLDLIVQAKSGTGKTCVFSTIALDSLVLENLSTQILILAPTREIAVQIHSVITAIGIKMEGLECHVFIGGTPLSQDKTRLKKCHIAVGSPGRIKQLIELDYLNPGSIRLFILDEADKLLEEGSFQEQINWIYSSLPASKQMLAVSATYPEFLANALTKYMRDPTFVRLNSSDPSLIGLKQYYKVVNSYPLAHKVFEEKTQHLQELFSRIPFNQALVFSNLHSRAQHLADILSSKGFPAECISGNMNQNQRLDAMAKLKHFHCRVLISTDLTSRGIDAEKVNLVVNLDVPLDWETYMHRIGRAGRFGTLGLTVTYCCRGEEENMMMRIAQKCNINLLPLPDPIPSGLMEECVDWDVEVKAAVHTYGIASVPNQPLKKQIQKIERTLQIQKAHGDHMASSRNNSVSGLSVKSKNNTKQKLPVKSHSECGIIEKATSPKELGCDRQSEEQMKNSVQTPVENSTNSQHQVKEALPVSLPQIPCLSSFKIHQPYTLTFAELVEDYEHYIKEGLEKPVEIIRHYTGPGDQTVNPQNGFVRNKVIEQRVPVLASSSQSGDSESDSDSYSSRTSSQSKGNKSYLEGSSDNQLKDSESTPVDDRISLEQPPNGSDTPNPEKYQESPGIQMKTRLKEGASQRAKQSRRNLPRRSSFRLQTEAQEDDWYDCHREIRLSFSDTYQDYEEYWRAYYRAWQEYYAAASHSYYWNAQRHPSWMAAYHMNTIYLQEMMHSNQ
Assay: Cysteine liganding, probe competition
Type: binding
Method in brief: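 Steps: sonicate cells in cold PBS; treat 5 mg/ml lysate with compound (25° C, 1 hr); add desthiobiotin iodoacetamide probe from a 10 mM stock (25° C, 1 hr); precipitate, reduce, alkylate, digest with trypsin; capture labelled peptides on streptavidin for analysis.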

Structure (SMILES): COc1ccc2c(c1)CCCN2C(=O)CCl [KB02]
- Liganded (DDX20 Res# 577, uniprot Q9UHI6): YES

Structure (SMILES): O=C(CCl)Nc1cc(C(F)(F)F)cc(C(F)(F)F)c1 [KBO3]
- 100 Max (uniprot Q9UHI6): 0.85
- 100 ave (uniprot Q9UHI6): −6.7225
- 500 Max (uniprot Q9UHI6): 37.31
- 500 ave (uniprot Q9UHI6): 31.49
